In brackets after ≈: the same amount, converted by molar mass.
Tests used:
S. aureus strains = assay: MIC determination, S. aureus strains; format: cell-based, Staphylococcus aureus; settings: for MIC: Staphylococcus aureus, S. aureus strains, lowest value quoted in text; for MIC range: tested Staphylococcus spp.
Method: (§1) Before analysis, compounds 5a–f were dissolved in 96% ethanol in a concentration of 2 mg/ml as stock solutions. Inoculums were prepared with fresh cultures of microbial strains, cultured on tryptic-soy agar or Sabouraud 2% (m/v) dextrose agar for 18 h (48–72 h for fungi) at 30 °C with physiological saline containing approximately […]. Inoculum density (0.5 McFarland units) was adjusted with a bio Mériex (France) densitometer. Minimum inhibitory concentration (MIC) was determined by the twofold micro-dilution method in Mu¨ller–Hinton broth for bacterial strains and RPMI 1640 + 2% m/v dextrose for fungi according to the EUCAST recommendations in a sterile 96-well flat-bottom plastic tissue culture plate. MIC was determined using a linear regression curve after incubation of compounds and reading the optical density at 570 nm using an iEMS microplate reader. […] All tests were performed in triplicate and expressed as the mean.

E. coli (both strains) = assay: Minimum biofilm eradication assay, E. coli both strains; format: cell-based, Escherichia coli
Method: We tested the susceptibility of different bacterial and yeast strains to compounds 5a–f by determining the minimum biofilm eradication concentration (MBEC). The test was performed in a sterile 96-well flat-bottom plastic tissue culture plate (TPP, Switzerland). Each well was filled with 100 µl of bacterial (10^7 CFUs/ml) or yeast (5 × 10^6 CFUs/ml) suspension. When the possibility of inhibition of yeast biofilm formation was tested, the wells were pre-treated with FBS (250 µl per well). Negative controls contained broth only. Positive controls were performed using standard antibacterial and antifungal drugs gentamycin and amphotericin B, respectively. The plates were covered and incubated aerobically for 24 h (bacteria) or 48 h (yeast) at 37 °C. Following the incubation period, each well was aspirated and washed three times with 250 µl of PBS and vigorously shaken in order to remove all non-adherent bacteria/yeast. The remaining attached cells were fixed with methanol (15 min) and the plates were left to dry overnight. The formed biofilm was stained with crystal violet (1%, 5 min). Excess stain was rinsed by placing the plate under running tap water and the plates were left to dry for 24 h. Adherent cells were resolubilized with acetic acid (33%, v/v). The optical density of each well was measured at 570 nm using a Multiscan plate reader. […]

E. coli = assay: MIC determination, E. coli as summarised in text; format: cell-based; settings: Escherichia coli, both strains
Method: as §1

| MIC (S. aureus strains) [µg/mL] | MIC range (S. aureus strains) [µg/mL] | SMILES | MBEC (E. coli (both strains)) [µg/mL] | MIC (E. coli) [µg/mL] |
| --- | --- | --- | --- | --- |
| 6.5 (≈ 10.2 µM) | 12.5 to 25 | COc1cc(NC(C)CCCNC(=O)NC(C(=O)NC(c2ccccc2)c2ccccc2)c2ccc(Cl)cc2)c2ncccc2c1 (stereo not drawn) [Compound 5d, 2–(4-chlorophenyl)-N-(diphenylmethyl)-2-[({4-[(6-methoxyquinolin-8-yl)amino]pentyl}carbamoyl)amino]acetamide] | – | – |
| – | – | COc1cc(NC(C)CCCN)c2ncccc2c1 (stereo not drawn) [PQ, 8-[(4-amino-1-methylbutyl)amino]-6-methoxyquinoline, reference compound] | 25 | – |
| – | – | COc1cc(NC(C)CCCNC(=O)NC(C(=O)NC(c2ccccc2)c2ccc(Cl)cc2)c2ccc(Cl)cc2)c2ncccc2c1 (stereo not drawn) [Compound 5e, 2–(4-chlorophenyl)-N-[(4-chlorophenyl)(phenyl)methyl]-2-[({4-[(6-methoxyquinolin-8-yl)amino]pentyl}carbamoyl)amino]acetamide] | – | 45 to 60 (≈ 67.1 to 89.5 µM) |
| 6.5 (≈ 11.2 µM) | 6.5 to 15 | COc1cc(NC(C)CCCNC(=O)NC(CC(C)C)C(=O)NC(c2ccccc2)c2ccccc2)c2ncccc2c1 (stereo not drawn) [Compound 5a, N-(diphenylmethyl)-2-[({4-[(6-methoxyquinolin-8-yl)amino]pentyl}carbamoyl)amino]-4-methylpentanamide] | – | – |
